This is an account of results in patent US12187702B2, “Sulfonamideurea compounds” (Inflazome Limited, priority 2018, dated 2025).

Series [1] in a line: PK, intravenous administration. The conditions noted are these: male, Sprague Dawley, plasma, rat; for clearance / half-life: dose per compound as in Table 3; for AUC: dose per compound as in Table 3 (0.08-1.86 mg/kg); for Vd: dose per compound as in Table 3, read-out: Vdss. Format: in vivo, male Sprague Dawley rats. Here is the method: (§1) Pharmacokinetic parameters were determined in male Sprague Dawley rats (Charles River, UK, 250-350 g; or Vital River Laboratory Animal Technology Co Ltd, Beijing, China, 7-9 weeks old). Animals were individually housed during the study and maintained under a 12 h light/dark cycle.
(§2) For intravenous administration, compounds were formulated as a solution in water or DMSO:PBS [10:90] in 2 mL/kg dosing volume and administered via tail or jugular vein. For oral administration, compounds were formulated as a solution in 0.5% w/v methyl cellulose in water in 5 mL/kg dosing volume and administered orally.
(§3) Serial blood samples (about 120-300 μL) were taken from each animal at each of 8 time-points post dose (0.083, 0.25, 0.5, 1, 2, 4, 8 and 24 h) or at each of 12 time-points post dose (0.03, 0.1, 0.17, 0.25, 0.5, 1, 2, 4, 6, 8, 12 and 24 h) or pre-dose and at each of 9 time-points post dose (0.25, 0.5, 1, 2, 4, 6, 8, 12 and 24 h). Samples were held on ice for no longer than 30 minutes before centrifugation (10,000 rpm (8,385 g) for 3 minutes; or 5,696 rpm (3,000 g) for 15 minutes) for plasma generation. Plasma was frozen on dry ice prior to bioanalysis. PK parameters were generated from LC-MS/MS data using Dotmatics or Phoenix WinNonlin 6.3 software.

The target in series [2] is T1, NLRP3 (Homo sapiens, UniProt Q96P20). Nature of the series: THP-1 cells pyroptosis assay (LPS + nigericin, resazurin read-out). On the set-up: Seed THP-1 cells (25,000 cells/well) containing 1.0 μg/ml LPS; host or cells: THP-1 cells. The conditions noted are these: THP-1 cells, 1 μg/ml LPS, 5 μM nigericin; NLRP3 inhibitory activity; read-out: THP IC50. Format: cell-based. An outline of the steps: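 THP-1 cells (25,000/well) primed with 1 μg/ml LPS in serum-free RPMI, treated 3 h with compound (8-point half-log series, 10 μM top, 0.1% DMSO), then 5 μM nigericin for 1 h at 37 °C. Viability read by 100 μM resazurin fluorescence after 1-2 h; IC50 from 4-parameter fit.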
T1 sequence (Q96P20 whole entry): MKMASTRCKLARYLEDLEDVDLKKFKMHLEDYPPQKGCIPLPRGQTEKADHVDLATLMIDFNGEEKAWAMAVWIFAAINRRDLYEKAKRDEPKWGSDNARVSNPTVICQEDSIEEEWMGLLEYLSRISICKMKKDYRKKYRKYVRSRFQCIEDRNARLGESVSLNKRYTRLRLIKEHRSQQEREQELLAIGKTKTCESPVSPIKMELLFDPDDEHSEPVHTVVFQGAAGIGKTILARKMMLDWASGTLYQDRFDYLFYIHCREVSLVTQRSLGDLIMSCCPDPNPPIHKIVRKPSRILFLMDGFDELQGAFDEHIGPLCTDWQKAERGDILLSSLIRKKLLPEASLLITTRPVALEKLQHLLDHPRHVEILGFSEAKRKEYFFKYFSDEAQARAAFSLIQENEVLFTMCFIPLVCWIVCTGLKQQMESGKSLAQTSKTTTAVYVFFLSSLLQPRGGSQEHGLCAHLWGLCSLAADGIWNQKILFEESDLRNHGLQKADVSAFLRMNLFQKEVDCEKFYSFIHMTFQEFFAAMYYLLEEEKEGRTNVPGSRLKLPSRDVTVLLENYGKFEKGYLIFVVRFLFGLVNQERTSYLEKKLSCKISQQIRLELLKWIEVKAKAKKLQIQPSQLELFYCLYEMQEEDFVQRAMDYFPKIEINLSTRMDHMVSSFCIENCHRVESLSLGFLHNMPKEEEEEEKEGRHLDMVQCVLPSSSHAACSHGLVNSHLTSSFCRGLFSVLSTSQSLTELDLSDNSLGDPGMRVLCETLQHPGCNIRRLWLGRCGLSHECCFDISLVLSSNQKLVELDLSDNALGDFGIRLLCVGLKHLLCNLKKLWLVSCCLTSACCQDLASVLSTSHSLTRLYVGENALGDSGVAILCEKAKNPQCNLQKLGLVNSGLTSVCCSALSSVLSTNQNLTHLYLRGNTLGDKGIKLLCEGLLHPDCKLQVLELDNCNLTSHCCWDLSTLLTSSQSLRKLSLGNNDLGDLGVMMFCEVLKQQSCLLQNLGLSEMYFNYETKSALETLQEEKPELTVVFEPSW

Series [3] deals with T1, NLRP3. Nature of the series: Human whole blood IL-1β release assay (LPS + nigericin, AlphaLisa). Format: cell-based. On the set-up: Plate out 80 μl of whole blood containing 1 μg/ml of LPS; from tissue; host or cells: human whole blood from healthy donors. The conditions noted are these: human whole blood, 1 μg/ml LPS, 10 μM nigericin; IL-1β release; read-out: HWB IC50. Put shortly: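 Healthy-donor Li-heparin whole blood containing 1 μg/ml LPS incubated with compound (8-point half-log dilution, 10 μM top) for 3 h at 37 °C, then with 10 μM nigericin for 1 h. Supernatant IL-1β measured by AlphaLisa; IC50 from 4-parameter variable-slope fit.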

A further series is described as follows: PK, oral administration. The series is classed as in vivo, male Sprague Dawley rats. The conditions noted are these: male, Sprague Dawley, plasma, rat, 3 mg/kg. Here is the method:
as §1, §2, §3

Each structure is given as a SMILES string. Structures can show the parent of a compound that is named as a salt. A value given as a limit tells only on which side of the number the result lay.

Consider `CN(C)CCN(C)S(=O)(=O)NC(=O)Nc1c2c(cc3c1CCC3)CCC2` [Example 6, potassium salt], for which, in series [1], the clearance worked out at 2.3 mL/min/kg, the half-life is 2.7 h, the area under the curve (AUC) came out at 7270 ng·h/mL and the Vd stood at 0.35 L/kg. The IC50 at NLRP3 [2] was less than 500 nM. Moreover, the IC50 at NLRP3 [3] is less than 500 nM.
On to `CN1CC[C@@H](N(C)S(=O)(=O)NC(=O)Nc2c3c(cc4c2CCC4)CCC3)C1` [Example 66, 3-((R)—N-Methyl-N-(1-methylpyrrolidin-3-yl)sulfamoyl)-1-(1,2,3,5,6,7-hexahydro-s-indacen-4-yl)urea, potassium salt], for which, in series [1], the clearance amounted to 3.7 mL/min/kg, the half-life was 3.44 h, the AUC is 6760 ng·h/mL and the Vd came out at 0.43 L/kg. At NLRP3 [2], the IC50 was less than 500 nM. The IC50 at NLRP3 [3] is less than 500 nM.
As for `CC(C)N1CCC(N(C)S(=O)(=O)NC(=O)Nc2c3c(cc4c2CCC4)CCC3)C1` (stereo not shown) [Example 36, 3-(N-(1-isopropylpyrrolidin-3-yl)-N-methylsulfamoyl)-1-(1,2,3,5,6,7-hexahydro-s-indacen-4-yl)urea, potassium salt], in series [1], the clearance was found to be 2.8 mL/min/kg, the half-life was 1.1 h, the AUC was found to be 5910 ng·h/mL and the Vd is 0.23 L/kg. The IC50 at NLRP3 [2] is less than 500 nM. Moreover, the IC50 on NLRP3 [3] was less than 1000 nM.
With `CN(C)CCNS(=O)(=O)NC(=O)Nc1c2c(cc3c1CCC3)CCC2` [Example 8, 3-(N-(2-(Dimethylamino)ethyl)sulfamoyl)-1-(1,2,3,5,6,7-hexahydro-s-indacen-4-yl)urea], in series [1], the clearance turned out to be 7.3 mL/min/kg, the half-life was 4 h, the AUC worked out at 2290 ng·h/mL and the Vd was 0.61 L/kg. Further, the IC50 at NLRP3 [2] is less than 1000 nM. The IC50 on NLRP3 [3] was less than 500 nM.
Turning to `CN1CCC2CN(S(=O)(=O)NC(=O)Nc3c4c(cc5c3CCC5)CCC4)CC21` (stereo not shown) [Example 96, N-((1,2,3,5,6,7-Hexahydro-s-indacen-4-yl)carbamoyl)-1-methylhexahydropyrrolo[3,4-b]pyrrole-5(1H)-sulfonamide, potassium salt], in series [1], the clearance came out at 5.7 mL/min/kg, the half-life was 1.14 h, the AUC is 5150 ng·h/mL and the Vd was 0.45 L/kg. The IC50 at NLRP3 [2] was less than 500 nM. Further, the IC50 on NLRP3 [3] was less than 500 nM.
Take `CN1CCCCC1CNS(=O)(=O)NC(=O)Nc1c2c(cc3c1CCC3)CCC2` (stereo not shown) [Example 20, 3-(N-((1-Methylpiperidin-2-yl)methyl)sulfamoyl)-1-(1,2,3,5,6,7-hexahydro-s-indacen-4-yl)urea, potassium salt]: in series [1], the clearance came to 7.1 mL/min/kg, the half-life is 1.2 h, the AUC worked out at 2360 ng·h/mL and the Vd turned out to be 0.4 L/kg. Moreover, the IC50 at NLRP3 [2] is less than 500 nM. In addition, on NLRP3 [3], the IC50 is less than 500 nM.
For the compound `COc1cc(-c2ccc3c(c2NC(=O)NS(=O)(=O)N2CC4CCN(C)C4C2)CCC3)ccn1` (stereo not shown) [Example 106], in series [1], the clearance came to 6 mL/min/kg, the half-life was 5.61 h, the AUC worked out at 5150 ng·h/mL and the Vd was 0.84 L/kg.
As for `COc1cc(-c2ccc3c(c2NC(=O)NS(=O)(=O)N(C)[C@@H]2CCN(C)C2)CCC3)ccn1` [Example 110, (R)-3-(N-Methyl-N-(1-methylpyrrolidin-3-yl)sulfamoyl)-1-(5-(2-methoxypyridin-4-yl)-2,3-dihydro-1H-inden-4-yl)urea, potassium salt], in series [1], the clearance is 20 mL/min/kg, the half-life is 3.9 h, the AUC stood at 835 ng·h/mL and the Vd was determined as 1.6 L/kg. For the same compound, in the series “PK, oral administration”, the AUC was found to be 1020 ng·h/mL, the CL/F was 50 mL/min/kg, the Cmax came to 277 ng/mL and the Tmax came to 0.67 h. Also, in the series “PK, oral administration”, the bioavailability was 41% and the half-life is 3.4 h. Moreover, the IC50 at NLRP3 [2] was less than 500 nM. Besides, on NLRP3 [3], the IC50 is less than 500 nM.
Consider `COc1cc(-c2ccc3c(c2NC(=O)NS(=O)(=O)N(C)[C@H]2CCN(C)C2)CCC3)ccn1` [Example 111, (S)-3-(N-methyl-N-(1-methylpyrrolidin-3-yl)sulfamoyl)-1-(5-(2-methoxypyridin-4-yl)-2,3-dihydro-1H-inden-4-yl)urea, potassium salt], for which, in series [1], the clearance was 17 mL/min/kg, the half-life was 4.8 h, the AUC was found to be 979 ng·h/mL and the Vd was determined as 1.3 L/kg. In addition, in the series “PK, oral administration”, the AUC was determined as 1380 ng·h/mL, the CL/F was 38 mL/min/kg, the Cmax was determined as 318 ng/mL and the Tmax turned out to be 0.67 h. In the series “PK, oral administration”, this compound had a bioavailability of 47% and a half-life of 4 h. Besides, at NLRP3 [2], the IC50 is less than 500 nM. Besides, the IC50 on NLRP3 [3] is less than 500 nM.
As to `CN1CCC(N(C)S(=O)(=O)NC(=O)Nc2c3c(cc4c2CCC4)CCC3)C1` (stereo not shown) [Example 11, 3-(N-Methyl-N-(1-methylpyrrolidin-3-yl)sulfamoyl)-1-(1,2,3,5,6,7-hexahydro-s-indacen-4-yl)urea, potassium salt], in series [1], the clearance amounted to 2.9 mL/min/kg, the half-life is 2.7 h, the AUC came to 5660 ng·h/mL and the Vd is 0.59 L/kg. Also, the IC50 at NLRP3 [2] was less than 500 nM. Further, the IC50 on NLRP3 [3] is less than 500 nM.
